Results as given in patent US20220218679A1, “NOVEL COMPOUNDS AND PHARMACEUTICAL COMPOSITIONS THEREOF FOR THE TREATMENT OF INFLAMMATORY DISORDERS” (Galapagos NV, priority 2019, published 2022).

Legend:
Mouse Hepatocyte = experiment: Metabolic stability in hepatocytes (mouse); format: in vitro ADME; settings: 1 μM test compound, cryopreserved mouse hepatocytes
Description: 4.6. Metabolic Stability in Hepatocytes
The aim of this assay is to determine the metabolic stability of the compound in hepatocytes (cryopreserved) of different species. Low hepatocyte stability may result in the formation of unwanted metabolites, high clearance, and therefore is not desirable.
The decrease in parent was assessed by measuring the percentage remaining by LC-MS/MS analysis.
A 10 mM stock solution of test compound in DMSO was first diluted in DMSO to 3 mM, and then in modified Krebs-Henseleit buffer (Sigma, K3753) to 5 μM. This compound dilution was added to a suspension of pooled cryopreserved hepatocytes (BioreclamationIVT) at 37° C. under gentle shaking.
Final reaction conditions were: 1 μM of test compound, 0.03% DMSO, 0.5 million viable hepatocytes/mL, and 75 μL incubation volume.
Testosterone (1 μM) and 7-hydroxycoumarin (1 μM) were used, respectively as phase I and phase II metabolic reaction controls.
After 0, 10, 20, 45, 90, 120 and 180 min of incubation, the reaction was terminated with 225 μL of MeCN:MeOH (2:1) containing 100 ng/mL of diclofenac as analytical internal standard. Samples were mixed, centrifuged and the supernatant analyzed by LC-MS/MS.
The instrument responses (ratios of test compound and internal standard peak areas) were referenced to the zero time point samples (considered as 100%) in order to determine the percentage of compound remaining.
Plots of percentage compound remaining were used to determine the intrinsic clearance in the hepatocyte incubations using the following equations:
Scaled Clint [L/h/kg]=Clint[μL/min/10^6 cells]*#(10^6) cells/g liver*60*( 1/10^6) Scaled Clint unbound [L/h/kg]=Clint [L/h/kg]/Fu,inc where: fu,inc equals hepatocyte binding, derived from microsomal binding (fu,mic) by following equation: […]

[1] = system: CL097 triggered IFNα release in human whole blood; experiment: Ex vivo human IFNα release inhibition (human whole blood assay); format: cell-based; settings: CL097 2 μg/mL, 3 h 30 min at 37° C.
Excerpt: 4.10.1. Ex Vivo Human IFNα and TNFα Release Inhibition (Human Whole Blood Assay)
The aim of the assay is to evaluate the activity of compounds of the invention on the activated TLR/IRAK-4 pathway in an ex vivo human whole blood setting. Toll-like receptors (TLRs) are pattern recognition receptors that recognize a wide variety of microbial molecules, called pathogen-associated molecular patterns (PAMPs). Human TLR7 and TLR8 recognize imidazoquinoline compounds (e.g., CL097—CAS n #1026249-18-2) and single stranded RNAs as their natural ligands. Activation of TLRs leads to the production of several cytokines (e.g., IFNα, TNFα, IL-8, IL-6) by the TLR agonist-treated cells, whereas IRAK4 leads to the production of IFNα. Cytokine release is used as readout in this assay and represents a measure for the level of inhibition of the TLR/IRAK-4 pathway by the tested compound. It should be noted that in the context of the complete organism, other sources for these cytokines exist that are not dependent on the TLR/IRAK-4 pathway, such as e.g., macrophages (upon activation of the Fcγ receptor (Yan et al., 2012)) or T cells (upon activation of the T cell receptor (Brehm et al., 2005)).
4.10.1.1. Experimental Design
Blood was collected from healthy volunteers into lithium heparin tubes by venipuncture, then gently inverted several times to prevent clotting and incubated for at least 15 min at 37° C. on a rocking mixer shaker. Then, 100 μL of blood was dispensed into polypropylene 96-well microplate and pre-incubated in duplicate with 0.3% DMSO or test compound at different concentrations (from 30 to 0.01 μM, 3-fold dilutions to get 0.3% DMSO at the final) for 15 min at 37° C. After this pre-incubation, blood was triggered with CL097 (2 μg/mL from 1 mg/mL solution in water; InvivoGen, tlrl-c97) for 3 h 30 min at 37° C. Microtubes were centrifuged at 5000×g for 10 min at 4° C. and approximately 40 μL of plasma were collected into a polystyrene 96-well plate. Plasma could be analyzed freshly, within 30 min after triggering, or frozen at −80° C. Finally, the quantification of TNFα and IFNα were performed in the plasma using AlphaLISA Kit for TNFα and IFNα according to the manufacturer's instructions and read on the Ensight (PerkinElmer).
A standard curve was created by plotting on log-log the mean […] on the y-axis against the concentration on the x-axis and a 4-parameters logistic regression (4PL) was made through the points. For each blood sample, the IFNα concentrations of the samples were determined from the fit. Data were then expressed as a percentage of inhibition (PIN) for each replicate using the formula:
With mean IFNα with CL097=mean IFNα concentration of replicate samples triggered with CL097; IFNαsample1=IFNα concentration of sample 1; mean IFNα with vehicle=mean IFNα concentration of replicate samples treated with vehicle.
Curve fitting for pIC50 determination were generated using mean PIN±sem. Graphs and pIC50 calculations were derived using Prism 5.03 software (GraphPad).

Compound	Mouse Hepatocyte stability (Perc. remaining at 90 min) (Mouse Hepatocyte) [Perc.]	IC50 ([1]; Homo sapiens) [nM]	IC50 [1] [nM]
CNC(=O)c1cn2nc(C3CCCS(=O)(=O)C3)cc2cc1NC(=O)c1cccc(C(F)(F)F)n1 (centres unmarked) [Compound 8, 2-(1,1-dioxothian-3-yl)-N-methyl-5-[[6-(trifluoromethyl)pyridine-2-carbonyl]amino]pyrazolo[1,5-a]pyridine-6-carboxamide]	75.15		
CNC(=O)c1cn2nc(C3CCOCC3)cc2cc1NC(=O)c1cccc(C(F)F)n1 [Compound 15, 5-[[6-(difluoromethyl)pyridine-2-carbonyl]amino]-N-methyl-2-tetrahydropyran-4-yl-pyrazolo[1,5-a]pyridine-6-carboxamide]		> 5000	
COc1cn2nc(CC(F)C(C)(C)O)cc2cc1NC(=O)c1cccn(C2CC2)c1=O (single isomer, unassigned; enantiomer b) [Compound 26, 1-cyclopropyl-N-[2-(2-fluoro-3-hydroxy-3-methyl-butyl)-6-methoxy-pyrazolo[1,5-a]pyridin-5-yl]-2-oxo-pyridine-3-carboxamide Enantiomer B]			1000 to 5000
COc1cn2nc(CCC(C)(C)O)cc2cc1NC(=O)c1cccn(C2CCC2)c1=O [Compound 21, 1-cyclobutyl-N-[2-(3-hydroxy-3-methyl-butyl)-6-methoxy-pyrazolo[1,5-a]pyridin-5-yl]-2-oxo-pyridine-3-carboxamide]	49.45	1000 to 5000	
CNC(=O)c1cn2nc(CCC(C)(C)O)cc2cc1NC(=O)c1cccc(C(F)(F)F)n1 [Compound 5, 2-(3-hydroxy-3-methylbutyl)-N-methyl-5-[[6-(trifluoromethyl)pyridine-2-carbonyl]amino]pyrazolo[1,5-a]pyridine-6-carboxamide]	76.25	1000 to 5000	
NC(=O)c1cn2nc(C3CCOCC3)cc2cc1NC(=O)c1cccc(C(F)F)n1 [Compound 16, 5-[[6-(difluoromethyl)pyridine-2-carbonyl]amino]-2-tetrahydropyran-4-yl-pyrazolo[1,5-a]pyridine-6-carboxamide]	51.75		
COc1cn2nc(CCC(C)(C)O)cc2cc1NC(=O)c1cccc(C(F)(F)F)n1 [Compound 3, N-[2-(3-hydroxy-3-methylbutyl)-6-methoxypyrazolo[1,5-a]pyridin-5-yl]-6-(trifluoromethyl)pyridine-2-carboxamide]	10.17	1000 to 5000	
CNC(=O)c1cn2nc(C3CCN(C)CC3)cc2cc1NC(=O)c1cccc(C(F)(F)F)n1 [Compound 12, N-methyl-2-(1-methyl-4-piperidyl)-5-[[6-(trifluoromethyl)pyridine-2-carbonyl]amino]pyrazolo[1,5-a]pyridine-6-carboxamide]	97.05	1000 to 5000	
COc1c(NC(=O)c2cccn(C3CC3)c2=O)cc2cc(CCC(C)(C)O)nn2c1C [Compound 13, 1-cyclopropyl-N-[2-(3-hydroxy-3-methyl-butyl)-6-methoxy-7-methyl-pyrazolo[1,5-a]pyridin-5-yl]-2-oxo-pyridine-3-carboxamide]	87.8		

Next, values leading:

Mouse Hepatocyte stability (Perc. remaining at 90 min) (Mouse Hepatocyte) [Perc.]	IC50 ([1]; Homo sapiens) [nM]	IC50 [1] [nM]	Compound
	500 to 1000		CNC(=O)c1cn2nc(CCC(C)(C)O)cc2cc1NC(=O)c1cccc(C(F)F)n1 [Compound 19, 5-[[6-(difluoromethyl)pyridine-2-carbonyl]amino]-2-(3-hydroxy-3-methyl-butyl)-N-methyl-pyrazolo[1,5-a]pyridine-6-carboxamide]
	500 to 1000		COc1cn2nc(CC(F)C(C)(C)O)cc2cc1NC(=O)c1cccn(C2CC2)c1=O (single isomer, unassigned; enantiomer a) [Compound 25, 1-cyclopropyl-N-[2-(2-fluoro-3-hydroxy-3-methyl-butyl)-6-methoxy-pyrazolo[1,5-a]pyridin-5-yl]-2-oxo-pyridine-3-carboxamide Enantiomer A]
93	1000 to 5000		CCOc1cn2nc(CCC(C)(C)O)cc2cc1NC(=O)c1cccn(C2CC2)c1=O [Compound 17, 1-cyclopropyl-N-[6-ethoxy-2-(3-hydroxy-3-methyl-butyl)pyrazolo[1,5-a]pyridin-5-yl]-2-oxo-pyridine-3-carboxamide]
83.65	1000 to 5000		CCOc1cn2nc(CCC(C)(C)O)cc2cc1NC(=O)c1cccn(C(F)F)c1=O [Compound 9, 1-(difluoromethyl)-N-[6-ethoxy-2-(3-hydroxy-3-methyl-butyl)pyrazolo[1,5-a]pyridin-5-yl]-2-oxo-pyridine-3-carboxamide]
93	1000 to 5000		CCOc1cn2nc(CCC(C)(C)O)cc2cc1NC(=O)c1cccn(C)c1=O [Compound 18, N-[6-ethoxy-2-(3-hydroxy-3-methyl-butyl)pyrazolo[1,5-a]pyridin-5-yl]-1-methyl-2-oxo-pyridine-3-carboxamide]
108.25	1000 to 5000		COc1cn2nc(CCC(C)(C)O)cc2cc1NC(=O)c1cccn(C(F)F)c1=O [Compound 7, 1-(difluoromethyl)-N-[2-(3-hydroxy-3-methyl-butyl)-6-methoxy-pyrazolo[1,5-a]pyridin-5-yl]-2-oxo-pyridine-3-carboxamide]
	1000 to 5000		CC(C)(O)CCc1cc2cc(NC(=O)c3cccc(C(F)(F)F)n3)c(C(N)=O)cn2n1 [Compound 4, 2-(3-hydroxy-3-methylbutyl)-5-[[6-(trifluoromethyl)pyridine-2-carbonyl]amino]pyrazolo[1,5-a]pyridine-6-carboxamide]
94.1	500 to 1000		COc1cn2nc(CCC(C)(C)O)cc2cc1NC(=O)c1cccn(C)c1=O [Compound 2, N-[2-(3-hydroxy-3-methylbutyl)-6-methoxypyrazolo[1,5-a]pyridin-5-yl]-1-methyl-2-oxopyridine-3-carboxamide]
	500 to 1000		COc1cn2nc(CC(F)C(C)(C)O)cc2cc1NC(=O)c1cccn(C2CC2)c1=O (centres unmarked) [Compound 22, 1-cyclopropyl-N-[2-(2-fluoro-3-hydroxy-3-methyl-butyl)-6-methoxy-pyrazolo[1,5-a]pyridin-5-yl]-2-oxo-pyridine-3-carboxamide]
	500 to 1000		[2H]C([2H])([2H])C(O)(CCc1cc2cc(NC(=O)c3cccn(C4CC4)c3=O)c(OC)cn2n1)C([2H])([2H])[2H] [Compound 23, 1-cyclopropyl-N-[6-methoxy-2-[4,4,4-trideuterio-3-hydroxy-3-(trideuteriomethyl)butyl]pyrazolo[1,5-a]pyridin-5-yl]-2-oxo-pyridine-3-carboxamide]
	0.1 to 500		[2H]C([2H])([2H])Oc1cn2nc(CCC(C)(C)O)cc2cc1NC(=O)c1cccn(C2CC2)c1=O [Compound 24, 1-cyclopropyl-N-[2-(3-hydroxy-3-methylbutyl)-6-(trideuteriomethoxy)pyrazolo[1,5-a]pyridin-5-yl]-2-oxopyridine-3-carboxamide]
